The results in this text go back to US9040563B2, “Dual inhibitors of farnesyltransferase and geranylgeranyltransferase I” (H. Lee Moffitt Cancer Center and Research Institute, Inc., priority 2010, dated 2015).

Where two headings read alike, the source gives them in different places.

Test [1] concerns Rap-1A geranylgeranylation. Briefly: Western blot of Rap-1A geranylgeranylation/processing (antibody to un-geranylgeranylated Rap-1A) in treated cells. It counts as cell-based. To be noted: MiaPaca, MDA-MB-468 and MDA-MB-231 human cancer cells; FIG. 13. On the procedure:
(§1) The ability of FGTI-2734 to inhibit HDJ-2 farnesylation and Rap-1A geranylgeranylation in human cancer cells was determined next. To this end, the MiaPaca pancreatic cancer cell line and 2 breast cancer cell lines (MDA-MB-468 and MDA-MB-231) were treated with various concentration of the dual inhibitor FGTI-2734, the GGT-1 inhibitor GGTI-2418 or the FT inhibitor FTI-2153 and processed for Western blotting.
(§2) Testing has shown that the dual farnesyltransferase and geranygeranyltransferase-I inhibitors are effective on pancreatic tumors (90% of all cases), colonic tumors (30% of all cases), lung tumors (30% of all cases), and breast tumors (10% of all cases). NIH-3T3 cells that overexpress oncogenic mutant K-Ras, seen in FIG. 14, and MDA-MB-231 breast cancer cells with a naturally occurring K-Ras mutation, seen in FIG. 15, were treated with indicated concentrations of FGTI-2734, GGTI-2417 or FTI-2153. FGTI-2734 but not FTI-2153 or GGTI-2417 inhibited K-Ras prenylation. As expected, GGTI-2417 inhibited the processing of Rap1 but not HDJ-2 whereas FTI-2153 inhibited the processing of HDJ-2 but not Rap1.
Mammalian target of rapamycin (mTOR) is a serine/threonine phosphatidylinositol 3-kinase-related kinase responsible for cell growth, proliferation, cell survival, protein synthesis, and transcription. Alteration of the mTOR pathway, either through activation of oncogenes or inactivation of tumor suppressors, disrupts a signaling equilibrium and causes malignant transformation. Studies have shown that phosphorylated S6 (pS6) is related to mTOR pathway alterations, and is useful in determining PI3K-based cancer therapies (Aziz, et al. Phosphatidylinositol-3-Kinase as a Therapeutic Target in Melanoma. Clin Cancer Res. 2009, 15; 3029-3036). Two breast adenocarcinoma and a pancreatic carcinoma cell line were treated with indicated concentrations of FGTI-2734, GGTI-2417 or FTI-2153. Protein extracts were run on a Western Blot using antibody against pS6 (ser240/244) (Cell Signaling Technology, Inc., Danvers, Mass.). […]
In general terms: Immunoblotting shows a protein as a band on a membrane.

The target of the next test is GGTase-I (Homo sapiens, UniProt P49354+P53609). Briefly: In vitro GGTase-I inhibition: incorporation of [3H]GGPP into recombinant H-Ras-CVLL. It counts as biochemical. The note with it: average of n = 3 unless stated, errors are standard deviations, read-out: GGTase-1 IC50.
The subject of test [2] is mTOR signaling pathway (pS6). Nature of the test: Western blot of pS6 (ser240/244), mTOR pathway signaling. The test is classed as cell-based, human. The note with it: two breast adenocarcinoma and a pancreatic carcinoma cell line; FIG. 16. The text has this: Mammalian target of rapamycin (mTOR) is a serine/threonine phosphatidylinositol 3-kinase-related kinase responsible for cell growth, proliferation, cell survival, protein synthesis, and transcription. Alteration of the mTOR pathway, either through activation of oncogenes or inactivation of tumor suppressors, disrupts a signaling equilibrium and causes malignant transformation. Studies have shown that phosphorylated S6 (pS6) is related to mTOR pathway alterations, and is useful in determining PI3K-based cancer therapies (Aziz, et al. Phosphatidylinositol-3-Kinase as a Therapeutic Target in Melanoma. Clin Cancer Res. 2009, 15; 3029-3036). Two breast adenocarcinoma and a pancreatic carcinoma cell line were treated with indicated concentrations of FGTI-2734, GGTI-2417 or FTI-2153. Protein extracts were run on a Western Blot using antibody against pS6 (ser240/244) (Cell Signaling Technology, Inc., Danvers, Mass.). […] Antibodies used were HDJ-2 (Lab Vision Corporation, Fremont, Calif.), Rapt (Santa Cruz Biotechnology, Santa Cruz, Calif.), K-Ras (EMD4 Biosciences (Calbiochem), Gibbstown, N.J.), P27 (BD Biosciences, San Jose, Calif.), Actin (Sigma-Aldrich, St. Louis, Mo.), Survivin (Santa Cruz Biotechnology, Santa Cruz, Calif.), and PARP (Roche, Indianapolis, Ind.).

A further test relates to HDJ-2 farnesylation. Briefly: Western blot of HDJ-2 farnesylation/processing (gel shift) in treated cells. It counts as cell-based. To be noted: MiaPaca, MDA-MB-468 and MDA-MB-231 human cancer cells; FIG. 13. On the procedure: as §1, §2
Mammalian target of rapamycin (mTOR) is a serine/threonine phosphatidylinositol 3-kinase-related kinase responsible for cell growth, proliferation, cell survival, protein synthesis, and transcription. […]

The next test concerns HPDE-C7. Briefly: MTT proliferation/viability assay. It counts as cell-based, human. To be noted: Homo sapiens, HPDE-C7, pancreas. The procedure: (§3) To determine if FGTI-2734 is more efficacious than FT or GGT-1 inhibitors, 10 human cancer pancreatic cell lines, 2 human breast cancer cell lines, 2 human lung cancer cell lines and one human prostate cancer cell line were treated with these inhibitors and determined their effects on the proliferation of these cells by MTT assay.

Another test deals with HPNE. Nature of the test: MTT proliferation/viability assay. The test is classed as cell-based, human. To be noted: Homo sapiens, pancreas. On the procedure: as §3
For the next test, the system named is Panc-1. Briefly: MTT proliferation/viability assay. The test is classed as cell-based, human. The note with it: Homo sapiens, Panc-1, pancreas. The procedure: as §3
In a further test the test system is MiaPaca. Nature of the test: MTT proliferation/viability assay. The test is classed as cell-based, human. The note with it: Homo sapiens, MIA PaCa-2, pancreas. On the procedure: as §3
In the next test the test system is DU-145. Briefly: MTT proliferation/viability assay. The test is classed as cell-based, human. To be noted: Homo sapiens, DU-145, DU-145, prostate. The procedure:
as §3

A further test concerns farnesylation of H-Ras. Nature of the test: Whole cell inhibition of H-Ras processing (farnesylation), immunoblot, oncogenic H-Ras-transformed NIH3T3 cells. The test is classed as cell-based, mouse.

As usually defined, the IC50 is the concentration at which inhibition is half-maximal. As for `Cn1cncc1CN(CCN(CC1CCCCC1)S(=O)(=O)c1ccccn1)c1ccc(C#N)cc1F` [21b, N-(2-((4-cyano-2-fluorophenyl)((1-methyl-1H-imidazol-5-yl)methyl)amino)ethyl)-N-(cyclohexylmethyl)pyridine-2-sulfonamide], the “inhibition of Rap-1A geranylgeranylation” value in test [1] is reported as “inhibited”. For the same compound, the IC50 on GGTase-I was 0.52 ± 0.09 µM; with HPDE-C7 it was 7.5 µM; in the test with HPNE, 13.5 ± 1.72 µM; in the test on Panc-1, 20.5 ± 3.18 µM; with MiaPaca it was 2.65 ± 0.3 µM; with DU-145, 11.2 ± 6.09 µM. Besides, the IC50 was found to be 88.7 ± 25.8 nM in the test on farnesylation of H-Ras (Mus musculus, NIH3T3, whole cells, oncogenic H-Ras-transformed NIH3T3, n = 3 unless stated, read-out: H-Ras processing IC50) and 89 ± 26 nM in the test with farnesylation of H-Ras (whole cells, NIH 3T3, values in nM, listed as FGTI-2734, read-out: H-Ras processing IC50 (whole cell)). Moreover, in test [2], the “mTOR pathway signaling, levels of pS6” value is given as “reducing the levels of pS6”. For the same compound, in the test on HDJ-2 farnesylation, the “inhibition of HDJ-2 farnesylation” value is recorded as “inhibited”.
